In patent US20040106545A1, “Compounds and methods for modulating cell adhesion” (priority 1996, published 2004):
Entries after “also recorded” stand apart in the source; their conditions may differ. Read-outs that look alike come from different tables or passages of the source. Positions of bridges follow the written chain, without caps; N, C: chain ends. Residues, ends and D or L forms follow the SMILES beside them.

Columns and labels:
[1] = tested on: Bovine pulmonary artery endothelial cells; assay: Disruption of bovine endothelial cell adhesion; format: cell-based; conditions: 500 μg/ml, 30 minutes
Procedure: For use within one such assay, bovine pulmonary artery endothelial cells may be harvested by sterile ablation and digestion in 0.1% collagenase (type II; Worthington Enzymes, Freehold, N.J.). Cells may be maintained in Dulbecco's minimum essential medium supplemented with 10% fetal calf serum and 1% antibiotic-antimycotic at 37° C. in 7% CO2 in air. Cultures may be passaged weekly in trypsin-EDTA and seeded onto tissue culture plastic at 20,000 cells/cm^2. Endothelial cultures may be used at 1 week in culture, which is approximately 3 days after culture confluency is established. The cells may be seeded onto coverslips and treated (e.g., for 30 minutes) with modulating agent or a control compound at, for example, 500 μg/ml and then fixed with 1% paraformaldehyde. As noted above, disruption of cell adhesion may be determined visually within 24 hours, by observing retraction of the cells from one another. This assay evaluates the effect of a modulating agent on N-cadherin mediated cell adhesion.
Bovine pulmonary artery endothelial cells were harvested by sterile ablation and digestion in 0.1% collagenase (type II; Worthington Enzymes, Freehold, N.J.). Cells were maintained in Dulbecco's minimum essential medium (Clonetics, San Diego, Calif.) supplemented with 10% fetal calf serum (Atlantic Biologicals, Nor cross, Ga.) and 1% antibiotic-antimycotic at 37° C. in 7% CO2 in air. Cultures were passaged weekly in trypsin-EDTA (Gibco, Grand Island, N.Y.) and seeded onto tissue culture plastic at 20,000 cells/cm^2 for all experiments. Endothelial cultures were used at 1 week in culture, which is approximately 3 days after culture confluency was established. The cells used in all protocols were between 4th passage and 10th passage. The cells were seeded onto coverslips and treated 30 minutes with N—Ac-CHAVC-NH2 (SEQ ID NO:10) or N—Ac-CHGVC-NH2 (SEQ ID NO:11) at 500 μg/ml and then fixed with 1% paraformaldehyde.

[2] = biological target: T1, N-cadherin (Gallus gallus, UniProt P10288); assay: Neurite outgrowth inhibition, rat neurons (Example 21); format: cell-based; conditions: read-out: % Inhibition of neurite outgrowth; 250 μg/mL
T1 construct: expressed in transfected cells; host or cells: 3T3 fibroblasts (monolayer)
T1 sequence (P10288 165-912): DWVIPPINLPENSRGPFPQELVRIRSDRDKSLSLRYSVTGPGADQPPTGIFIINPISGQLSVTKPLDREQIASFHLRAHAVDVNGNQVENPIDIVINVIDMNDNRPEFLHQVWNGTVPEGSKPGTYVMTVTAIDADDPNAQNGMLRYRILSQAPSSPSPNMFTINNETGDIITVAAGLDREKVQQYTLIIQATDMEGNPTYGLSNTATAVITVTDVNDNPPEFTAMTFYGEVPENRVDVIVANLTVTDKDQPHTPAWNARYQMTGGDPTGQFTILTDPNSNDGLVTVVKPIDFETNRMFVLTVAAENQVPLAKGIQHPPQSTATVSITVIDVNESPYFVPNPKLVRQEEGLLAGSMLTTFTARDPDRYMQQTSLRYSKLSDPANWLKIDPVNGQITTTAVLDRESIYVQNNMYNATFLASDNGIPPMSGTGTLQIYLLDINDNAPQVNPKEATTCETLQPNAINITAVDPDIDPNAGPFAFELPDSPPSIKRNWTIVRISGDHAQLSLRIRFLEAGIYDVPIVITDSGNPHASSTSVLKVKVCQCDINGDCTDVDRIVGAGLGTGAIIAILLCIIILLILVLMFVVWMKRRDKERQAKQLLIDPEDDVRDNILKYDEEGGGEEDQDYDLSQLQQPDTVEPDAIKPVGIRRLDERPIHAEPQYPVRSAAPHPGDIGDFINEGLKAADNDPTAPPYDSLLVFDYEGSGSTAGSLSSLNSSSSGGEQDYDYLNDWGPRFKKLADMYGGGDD

[3] = tested on: PC-3; assay: Cytotoxicity, MTT assay, PC-3; format: cell-based, human
Outline: (§1)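 Human primary endothelial cells, fibroblast lines (IAFp2, WI-38) and cancer lines (MDA-MB231, PC-3) receive the CHAVC peptide or the CHGVC control at ≤100 μM. Viability is scored by MTT and DNA synthesis by ^3H-thymidine uptake.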

[4] = tested on: MDA-MB231; assay: Cytotoxicity, MTT assay, MDA-MB231; format: cell-based, human
Outline: as §1

[5] = tested on: HMVEC; format: cell-based, human; conditions: 3 h
Outline: as §1

[6] = tested on: PC-3; format: cell-based, human; conditions: 3 h
Outline: as §1

[7] = tested on: HUVEC; format: cell-based, human; conditions: 3 h
Outline: as §1

[8] = tested on: MDA-MB231; format: cell-based, human; conditions: 3 h
Outline: as §1

[9] = tested on: WI-38; format: cell-based, human; conditions: 3 h
Outline: as §1

[10] = tested on: IAFp2; format: cell-based, human; conditions: 3 h
Outline: as §1

[11] = Solubility in RPMI; format: physicochemical; conditions: 1 mM
[12] = tested on: Madin Darby canine kidney (MDCK) cells; format: cell-based
Procedure: Yet another assay evaluates the effect of a modulating agent on the electrical resistance across a monolayer of cells. For example, Madin Darby canine kidney (MDCK) cells can be exposed to the modulating agent dissolved in medium (e.g., at a final concentration of 0.5 mg/ml for a period of 24 hours). The effect on electrical resistance can be measured using standard techniques. This assay evaluates the effect of a modulating agent on tight junction formation in epithelial cells. In general, the presence of 500 μg/mL modulating agent should result in a statistically significant decrease in electrical resistance after 24 hours.
Madin Darby canine kidney (MDCK) cells were plated in Millicells (Millipore, Bedford, Mass.), at a density of 300,000 cells per Millicell, and cultured in Dulbecco's Modified Eagle Medium (DMEM; Sigma, St. Louis, Mo.) containing 5% fetal calf serum (Sigma, St. Louis, Mo.) until monolayers formed. Monolayers were exposed to the modulating agent dissolved in medium. The electrical resistance was measured using the EVOM device (World Precision Instruments, Sarasota, Fla.). At the time of measurement, fresh medium, with or without the modulating agent, may be added to the Millicells.

[13] = biological target: T2, chick N-cadherin (Gallus gallus, UniProt P10288); assay: Neurite outgrowth of rat cerebellar neurons on N-cadherin expressing 3T3 monolayers (Example 15); format: cell-based
T2 construct: expressed in transfected cells; host or cells: 3T3 fibroblasts (monolayer); rat post-natal day 2-3 cerebellar neurons plated on top
T2 sequence (P10288 165-912): T1 sequence (P10288 165-912)

[14] = tested on: Madin Darby canine kidney (MDCK) cells; format: cell-based; conditions: 18 h
[15] = tested on: SKOV3 cells; assay: Disruption of human ovarian cancer cell (SKOV3) adhesion; format: cell-based; conditions: 1 mg/mL media, within 24 hours
Procedure: FIGS. 37A and 37B are photographs illustrating the effect of N—Ac-CHAVC-Y—NH2 (SEQ ID NO:84) on SKOV3 cell adhesion. A confluent culture of SKOV3 cells was briefly trypsinated and counted using a hemacytometer. The cells were diluted to 5×10^3/mL in MEM (Gibco BRL) containing 10% FBS (Wisent). A 10 mg/mL solution of peptide was added directly to the media at a concentration of 1 mg/mL. The plate was incubated in a humidified chamber at 37° C. for 24 hours in 5% CO2. Morphological changes were evaluated after 24 hours.
The human ovarian cancer cell line SKOV3 (ATCC #HTB-77) expresses N-cadherin. SKOV3 cells were cultured in a modified MEM-based media containing 10% FCS. Cells were grown in T-250 culture flasks and maintained by periodic subculturing. Cyclic peptides were tested on cells grown in individual wells of 96-well culture dishes (surface area of each well was 0.32 cm^2). Cells were harvested from flasks and seeded at a density of 50,000 cells per well in 0.1 mL media containing the cyclic peptides at concentrations of 1, 0.1, or 0.01 mg/mL, or in the absence of cyclic peptide. Media control wells were also established. Cultures were evaluated periodically by microscopic examination under both bright field and phase contrast conditions. Cultures were maintained for 48 hours.

[16] = tested on: Human saphenous vein vascular smooth muscle cells; assay: Vascular smooth muscle cell apoptosis at migrating wound edge, in situ end labeling; format: cell-based; conditions: 0.2 mg/ml, 24 hours after wounding, n=5, p=0.1
Procedure: Human saphenous vein vascular smooth muscle cells were explanted from surplus segments of vein from patients undergoing coronary artery bypass surgery. Cells were maintained in Dulbecco's modified essential medium supplemented with […], 2 mmol/L L-glutamine and 10% fetal calf serum and were grown to confluence on glass coverslips. The cell layer was then subjected to scrape-wounding by drawing a fine cell scraper across the coverslip. Proliferation of the vascular smooth muscle cells was inhibited by addition of 2 mM hydroxyurea to the culture media. Vascular smooth muscle cells that are treated in this manner respond to the wounding of the confluent monolayer by migrating into the wound (Hammerle et al (1991) Vasa 20, 207-215). The percentage of apoptotic cells in the migrating edge (outermost 100 μm from the wound) was assessed by in situ end labeling at 24 hours after wounding (as in George et al (2001) Gene Therapy 8 668-676).

[17] = biological target: L1 (Homo sapiens, UniProt P32004); assay: Neurite outgrowth of rat cerebellar neurons on L1 expressing 3T3 monolayers (Example 15); format: cell-based; set-up: expressed in transfected cells; rat cerebellar neurons on top
L1, sequence (P32004 20-1257): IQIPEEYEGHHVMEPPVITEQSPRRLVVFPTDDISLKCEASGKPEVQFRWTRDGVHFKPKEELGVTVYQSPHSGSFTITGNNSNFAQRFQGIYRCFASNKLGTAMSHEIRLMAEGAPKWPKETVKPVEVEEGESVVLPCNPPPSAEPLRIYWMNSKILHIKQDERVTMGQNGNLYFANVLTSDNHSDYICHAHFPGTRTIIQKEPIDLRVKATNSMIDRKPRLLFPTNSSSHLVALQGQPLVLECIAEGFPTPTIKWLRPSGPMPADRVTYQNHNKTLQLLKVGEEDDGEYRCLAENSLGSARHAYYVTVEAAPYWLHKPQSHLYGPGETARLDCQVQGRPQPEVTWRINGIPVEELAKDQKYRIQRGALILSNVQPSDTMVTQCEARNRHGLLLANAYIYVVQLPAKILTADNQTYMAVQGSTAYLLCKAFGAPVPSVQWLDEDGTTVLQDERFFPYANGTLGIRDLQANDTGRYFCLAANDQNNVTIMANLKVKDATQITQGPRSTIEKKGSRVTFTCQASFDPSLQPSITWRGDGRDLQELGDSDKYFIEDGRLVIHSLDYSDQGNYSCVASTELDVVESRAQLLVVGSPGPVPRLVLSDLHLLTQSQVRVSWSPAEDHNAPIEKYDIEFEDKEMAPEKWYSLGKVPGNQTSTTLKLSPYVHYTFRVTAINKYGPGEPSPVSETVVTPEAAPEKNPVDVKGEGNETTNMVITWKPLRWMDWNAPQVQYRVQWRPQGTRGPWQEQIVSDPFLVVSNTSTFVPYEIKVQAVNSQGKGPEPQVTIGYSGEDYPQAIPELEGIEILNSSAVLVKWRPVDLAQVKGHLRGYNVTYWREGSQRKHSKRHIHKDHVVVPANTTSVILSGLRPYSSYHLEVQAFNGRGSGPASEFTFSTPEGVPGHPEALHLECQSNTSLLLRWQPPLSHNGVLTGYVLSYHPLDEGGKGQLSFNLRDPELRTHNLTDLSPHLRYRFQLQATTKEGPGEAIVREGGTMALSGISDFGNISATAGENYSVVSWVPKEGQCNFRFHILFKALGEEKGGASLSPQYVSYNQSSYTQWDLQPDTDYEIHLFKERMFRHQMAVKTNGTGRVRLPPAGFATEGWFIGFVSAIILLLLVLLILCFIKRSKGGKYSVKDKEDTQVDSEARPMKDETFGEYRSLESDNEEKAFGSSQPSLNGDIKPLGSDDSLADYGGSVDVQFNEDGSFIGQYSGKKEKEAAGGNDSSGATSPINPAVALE
Procedure: Cell culture and neurite outgrowth assays. Co-cultures of cerebellar neurons on monolayers of control 3T3 cells and monolayers of transfected 3T3 cells that express physiological levels of chick N-cadherin or human L1 were established as previously described (Williams et al., Neuron 13:583-594, 1994). In brief, 80,000 3T3 cells (control and transfected) were plated into individual chambers of an eight-chamber tissue culture slide coated with polylysine and fibronectin and cultured in DMEM/10% FCS. After 24 hours, when confluent monolayers had formed, the medium was removed and 3000 cerebellar neurons isolated from post-natal day 2-3 rats were plated into each well in SATO media (Doherty et al., Nature 343:464-466, 1990) supplemented with 2% FCS. All of the test peptides were added immediately before the neurons as a 2× stock prepared in SATO/2% FCS. The co-cultures were maintained for 16-18 hours, at which time they were fixed and immunostained for GAP-43 which is present only in the neurons and delineates the neuritic processes. The mean length of the longest neurite per cell was measured for 150-200 neurons sampled in replicate cultures as previously described (Williams et al., Neuron 13:583-594, 1994). […] Dose-response curves were evaluated and the EC50 values determined.
Other cell adhesion molecules, such as L1, can stimulate neurite outgrowth, and this response shares the same downstream signaling steps as the N-cadherin response. […] As previously reported, L1 stimulated neurite outgrowth from cerebellar neurons.

Row | Structure (SMILES) | effect on endothelial cell monolayer / morphology [1] | inhibition at 250 µg/mL [2] [%] | IC50 [3] [µM] | IC50 [4] [µM] | IC50 [5] [µM] | IC50 [6] [µM] | IC50 [7] [µM] | IC50 [8] [µM] | IC50 [9] [µM] | IC50 [10] [µM] | solubility in RPMI [11] | effect on electrical resistance across MDCK cells (in words) [12] | % inhibition of N-cadherin dependent neurite outgrowth ([13]; 125 μg/mL, 16-18 hours) [%] | inhibition at 125 µg/mL ([13]; 125 μg/mL, 16-18 hours, read-out: % Inhibition of N-Cadherin Dependent Neurite Outgrowth) [%] | EC50 [14] [µM] | disruption of SKOV3 cell adhesion [15] | inhibitory activity on N-cadherin dependent neurite outgrowth, structure/activity statements ([13]; Tables 8 and 9) | increase in apoptosis at wound edge [16] [fold] | inhibition at 125 µg/mL ([17]; 125 μg/ml, read-out: % Inhibition of L1 Response) [%] | effect on L1 stimulated neurite outgrowth (in words) ([17]; concentrations that inhibited the N-cadherin response (100 μg/mL in FIG. 24))
1 | CC[C@H](C)[C@@H]1NC(=O)[C@H](CC(=O)O)NC(=O)[C@H](C(C)C)NC(=O)CNC(=O)[C@H](Cc2c[nH]cn2)NC(=O)[C@H](C)NC(=O)[C@@H](NC(C)=O)CSSC[C@@H](C(N)=O)NC1=O (Ac-CAHGVDIC-NH2; disulfide 1-8) | neither of the cyclic peptides show activity | 0 | > 100 | > 100 | > 100 | > 100 | > 100 | > 100 | > 100 | > 100 | – | – | – | – | – | – | – | – | – | –
2 | CC(=O)N[C@H]1CSSC[C@@H](C(N)=O)NC(=O)[C@H](CO)NC(=O)[C@H](CO)NC(=O)[C@H](C(C)C)NC(=O)[C@H](C)NC(=O)[C@H](Cc2c[nH]cn2)NC(=O)[C@H](CO)NC1=O (Ac-CSHAVSSC-NH2; disulfide 1-8 (inferred)) | – | 0 | > 100 | > 100 | 70 | > 100 | 69 | 76 | > 100 | > 100 | *Incompletely soluble in RPMI at 1 mM | – | – | – | – | – | – | – | – | –
3 | CC(=O)N[C@H]1CSSC[C@@H](C(=O)N[C@@H](Cc2ccc(O)cc2)C(N)=O)NC(=O)[C@H](C(C)C)NC(=O)[C@H](C)NC(=O)[C@H](Cc2c[nH]cn2)NC1=O [N—Ac—CHAVCY—NH2] (Ac-CHAVCY-NH2; disulfide 1-5) | – | – | – | – | – | – | – | – | – | – | – | the most active | 89.8 ± 6.8 | 89.9 | 210 | disrupted SKOV3 cell adhesion | – | – | – | –
4 | CC[C@H](C)[C@@H]1NC(=O)[C@H](CC(=O)O)NC(=O)[C@H](C(C)C)NC(=O)[C@H](C)NC(=O)[C@H](Cc2c[nH]cn2)NC(=O)[C@@H](NC(C)=O)CSSC[C@@H](C(N)=O)NC1=O [N—Ac—CHAVDIC—NH2] (Ac-CHAVDIC-NH2; disulfide 1-7) | – | – | – | – | – | – | – | – | – | – | – | complete abrogation of E-cadherin specific activity | – | – | – | – | further increased activity; also recorded: potent inhibitors | 1.3 | 6 ± 4.7 | did not interfere with the ability of neurons to extend neurites over 3T3 cells expressing L1
